Patent US5366982A (priority 1990, dated 1994)

Key:
[1] = tested on: guinea-pig pulmonary parenchyma; experiment: L. Parenchyma: guinea-pig pulmonary parenchyma contraction antagonism induced by LTB4 (Sirois); assay type: cell-based; details: Cavia porcellus; Table XIX; guinea-pig pulmonary parenchyma contraction induced by LTB4; read-out: IC50 L. Parenchyma
Method: Further, compounds of this invention are shown to be leukotriene B4 antagonists in the technique of guinea-pig pulmonary parenchyma contraction antagonism induced by LTB4 described by P. Sirois et al., Pharmacology, 31, 225-236 (1985). In this technique, products are active at concentrations of between about 1 to about 10,000 nM.

[2] = target: leukotriene B4 receptors (Cavia porcellus, UniProt H0VYV8); experiment: biochemical; assay type: binding, guinea-pig; details: for IC50: Table XIX, guinea-pig spleen membranes, tritium-labelled LTB4, read-out: IC50 Binding (Cheng); for inhibition at 10 µM: read-out: Binding (Cheng) % Inhibition at 10 μM
Sequence of leukotriene B4 receptors (H0VYV8 1-348): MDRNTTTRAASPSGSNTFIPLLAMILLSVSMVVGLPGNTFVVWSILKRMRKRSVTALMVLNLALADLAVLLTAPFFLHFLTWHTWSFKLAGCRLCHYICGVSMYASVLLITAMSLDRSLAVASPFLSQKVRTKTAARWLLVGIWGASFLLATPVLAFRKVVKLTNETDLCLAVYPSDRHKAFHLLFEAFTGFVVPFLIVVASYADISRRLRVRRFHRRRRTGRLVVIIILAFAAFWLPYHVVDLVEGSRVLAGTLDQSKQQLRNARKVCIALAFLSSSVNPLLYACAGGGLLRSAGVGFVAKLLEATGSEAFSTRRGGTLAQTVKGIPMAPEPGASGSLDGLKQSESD

Compound	IC50 [2] [nM]	further results
CC(C)(CCCCCOc1cc(-c2ccccc2)cc(-c2ccccc2)n1)C(=O)O [2,2-dimethyl-7-[(4,6-diphenyl-2-pyridyl)oxy]heptanoic acid]	–	IC50 [1]: 30 nM
CC(C)(CCCCOc1cc(-c2ccccc2)cc(-c2ccccc2)n1)C(=O)O [2,2-dimethyl-6-[(4,6-diphenyl-2-pyridyl)oxy]hexanoic acid]	–	IC50 [1]: 10 nM
CN(C)c1ccc(-c2cc(OCCCCCC(=O)O)nc(-c3ccccc3)c2)cc1 [6-{[4-(4-dimethylaminophenyl)-6-phenyl-2-pyridyl]oxy}hexanoic acid]	–	IC50 [1]: 6000 nM
CC(CCCCOc1cc(-c2ccc(N)cc2)cc(-c2ccccc2)n1)C(=O)O (stereo not shown) [2-methyl-6-{[4-(4-aminophenyl)-6-phenyl-2-pyridyl]oxy}hexanoic acid]	–	IC50 [1]: 20 nM
Nc1ccc(-c2cc(OCCCCCC(=O)O)nc(-c3ccccc3)c2)cc1 [6-{[4-(4-aminophenyl)-6-phenyl-2-pyridyl]oxy}hexanoic acid]	–	IC50 [1]: 40 nM
O=C(O)CCCCCOc1cc(-c2ccccc2F)cc(-c2ccccc2)n1 [6-{[4-(2-fluorophenyl)-6-phenyl-2-pyridyl]oxy}hexanoic acid]	–	IC50 [1]: 1700 nM
CC(CCCCOc1cc(-c2ccc(Cl)cc2)cc(-c2ccccc2)n1)C(=O)O (stereo not shown) [2-methyl-6-{[4-(4-chlorophenyl)-6-phenyl-2-pyridyl]oxy}hexanoic acid]	–	IC50 [1]: 70 nM
COc1ccc(-c2cc(OCCCCC(C)C(=O)O)nc(-c3ccccc3)c2)cc1 (stereo not shown) [2-methyl-6-{[4-(4-methoxyphenyl)-6-phenyl-2-pyridyl]oxy}hexanoic acid]	–	IC50 [1]: 20 nM
Cc1ccc(-c2cc(OCCCCC(C)C(=O)O)nc(-c3ccccc3)c2)cc1 (stereo not shown) [2-methyl-6-{[4-(4-methylphenyl)-6-phenyl-2-pyridyl]oxy}hexanoic acid]	–	IC50 [1]: 20 nM
c1ccc(-c2cc(OCCCCCc3nn[nH]n3)nc(-c3ccccc3)c2)cc1 [5-{[5-(4,6-diphenyl-2-pyridyl)oxy]pentyl}-[1H]-tetrazole]	–	IC50 [1]: 10 nM
CCC(C)(CCCCOc1cc(-c2ccccc2)c2ccccc2n1)C(=O)O (stereo not shown) [2-ethyl-2-methyl-6-[(4-phenyl-2-quinolyl)oxy]hexanoic acid]	110	–
O=C(O)CCCCCOc1cc(-c2cc(Cl)cc(Cl)c2)cc(-c2ccccc2)n1 [6-{[4-(3,5-dichlorophenyl)-6-phenyl-2-pyridyl]oxy}hexanoic acid]	500	–
O=C(O)CCCCCOc1cc(-c2ccc(C(=O)O)cc2)cc(-c2ccccc2)n1 [6-{[6-phenyl-4-(4-carboxyphenyl)-2-pyridyl]oxy}hexanoic acid]	–	inhibition at 10 µM [2]: 32%
CCC(CCCCOc1cc(-c2ccc(Cl)cc2)c2ccccc2n1)C(=O)O (stereo not shown) [2-ethyl-6-{[4-(4-chlorophenyl)-2-quinolyl]oxy}hexanoic acid]	200	–
CC(C)(CCCCOc1cc(-c2ccccc2)c2cc(Cl)ccc2n1)C(=O)O [2,2-dimethyl-6-[(6-chloro-4-phenyl-2-quinolyl)oxy}hexanoic acid]	2500	–
O=C(O)CCCOc1cc(-c2ccccc2)cc(-c2ccccc2)n1 [4-[(4,6-diphenyl-2-pyridyl)oxy]butanoic acid]	300	–
CC(C)(CCCCCCOc1cc(-c2ccccc2)cc(-c2ccccc2)n1)C(=O)O [2,2-dimethyl-8-[(4,6-diphenyl-2-pyridyl)oxy]octanoic acid]	22	–
6-[(6-cyclopropyl-5-phenyl-2-pyridyl)oxy]hexanoic acid	40	–
O=C(O)CCCCCCCOc1ccc(-c2ccccc2)c(-c2ccccc2)n1	10000	–
CC(CCCCOc1cc(-c2ccc(Cl)cc2)c2ccccc2n1)C(=O)O (stereo not shown) [2-methyl-6-{[4-(4-chlorophenyl)-2-quinolyl]oxy}hexanoic acid]	30	–

Compound	IC50 [2] [nM]	further results
COc1ccc(-c2cc(-c3ccc(Cl)cc3)cc(OCCCCCC(=O)O)n2)cc1 [6-{[4-(4-chlorophenyl)-6-(4-methoxyphenyl)-2-pyridyl]oxy}hexanoic acid]	1700	–
Cc1ccc2nc(OCCCCC(C)(C)C(=O)O)cc(-c3ccccc3)c2c1 [6-[(6-methyl-4-phenyl-2-quinolyl)oxy]-2,2-dimethylhexanoic acid]	5000	–
CC(C)(CCCCOc1cccc(-c2ccccc2)n1)C(=O)O [6-[(6-phenyl-2-pyridyl)oxy]-2,2-dimethylhexanoic acid]	2000	–
O=C(O)CCCCCOc1cc(-c2ccc(Cl)cc2)cc(-c2ccc(Cl)cc2)n1 [6-{[4,6-di(4-chlorophenyl)-2-pyridyl]oxy}hexanoic acid]	1200	–
CC(CCCCOc1cc(-c2ccc3c(c2)OCO3)cc(-c2ccccc2Cl)n1)C(=O)O (stereo not shown) [6-{[6-(2-chlorophenyl)-4-(3,4-methylenedioxyphenyl)-2-pyridyl]oxy}-2-methylhexanoic acid]	2	–
CC(C)(CCCCOc1cc(-c2ccc(Cl)cc2)c2ccccc2n1)C(=O)O [2,2-dimethyl-6-{[4-(4-chlorophenyl)-2-quinolyl]oxy}hexanoic acid]	15	–
O=C(O)CCCCCCCSc1cc(-c2ccccc2)c2ccccc2n1 [sodium 8-[(4-phenyl-2-quinolyl)thio]octanoate]	–	inhibition at 10 µM [2]: 31%
CC(C)(CCCCOc1ccc(-c2ccccc2)c(-c2ccccc2)n1)C(=O)O [6-[(5,6-diphenyl-2-pyridyl)oxy]-2,2-dimethylhexanoic acid]	10000	–
CC(C)(CCCCOc1cc(-c2cccc(Cl)c2)c2ccccc2n1)C(=O)O [2,2-dimethyl-6-{[4-(3-chlorophenyl)-2-quinolyl]oxy}hexanoic acid]	1100	–
CC(C)(CCCCOc1cc(-c2ccc(Cl)cc2)c2ccccc2n1)c1nnn[nH]1 [5-{1,1-dimethyl-5-{[4-(4-chlorophenyl)-2-quinolyl]oxy}pentyl}-[1H]-tetrazole]	30	–
CC(CCCCOc1cc(-c2ccccc2)c2ccccc2n1)C(=O)O (stereo not shown) [2-methyl-6-[(4-phenyl-2-quinolyl)oxy]hexanoic acid]	550	–
O=C(O)COCCCOc1cc(-c2ccccc2)cc(-c2ccccc2)n1	100	–
CC(C)(CCCCOc1cc(-c2ccccc2)c2ccccc2n1)C(=O)O [2,2-dimethyl-6-[(4-phenyl-2-quinolyl)oxy]hexanoic acid]	150	–
O=C(O)CCCCCSc1ncc(-c2ccccc2)c(-c2ccccc2)n1 [6-(4,5-diphenyl-2-pyrimidylthio)hexanoic acid]	8000	–
O=C(O)CCCCCOc1ncc(-c2ccccc2)c(-c2ccccc2)n1 [6-(4,5-diphenyl-2-pyrimidyloxy)hexanoic acid]	–	inhibition at 10 µM [2]: 35%
CC(C)(CCCCOc1cc(-c2ccc(N)cc2)c2ccccc2n1)C(=O)O [2,2-dimethyl-6-{[4-(4-aminophenyl)-2-quinolyl]oxy}hexanoic acid]	40	–
COc1ccc2nc(OCCCCCC(=O)O)cc(-c3ccccc3)c2c1 [6-[(6-methoxy-4-phenyl-2-quinolyl)oxy]hexanoic acid]	–	inhibition at 10 µM [2]: 30%
O=C(O)CCCCC=Cc1cccc(Cc2ccccc2)c1 [7-(3-benzyl-phenyl)6-heptenoic acid, 7-(3-benzyl-phenyl)-6-heptenoic acid]	10000	–
CC(C)(CCCCOc1cc(-c2ccc(Cl)cc2)ccn1)C(=O)O [6-{[4-(4-chlorophenyl)-2-pyridyl]oxy}-2,2-dimethylhexanoic acid]	20	–
Nc1cccc(-c2cc(OCCCCCC(=O)O)nc(-c3ccccc3)c2)c1 [6-{[4-(3-aminophenyl)-6-phenyl-2-pyridyl]oxy}hexanoic acid]	12	–
